tested on: green peach aphid (Myzus persicae); assay: Insecticidal test for green peach aphid (100 ppm), Test Example 1; format: in vivo; settings: 120 h
Description: Insecticidal test for green peach aphid (Myzus persicae) (100 ppm)
Water (30 ml) was put into a beaker, and a leaf of Komatsuna (Brassica var. rapa) was placed within the beaker such that the stem was immersed in water. On the leaf of Komatsuna, five green peach aphids were released and allowed to fertilize. Two days after the releasing, imagoes were removed and the number of larvae was counted.
A surfactant Newcol NE-710F (trademark, produced by Nippon Nyukazai Co., Ltd., 2%) was dissolved in aqueous acetone (95% aqueous solution, 98%) to prepare solution 1. Next, a dispersant Gousenol GLO5-S (trademark, produced by Nippon Nyukazai Co., Ltd., 0.2% aqueous solution, 0.2%) was dissolved in water (99.8%) to prepare solution 2.
To each of the compounds (8 mg) of the present invention, the above solution 1 (0.4 ml), the above solution 2 (0.4 ml) and water (8 ml) were added. Further, the compounds of the present invention were each diluted with water so that the concentration of each compound was 100 ppm {as a spreading agent, Gramin S (trademark, produced by Sankyo Co., Ltd.) was added so as to have a concentration of 0.01%}.
The above chemical liquid (8 ml) was sprayed on the leaf of Komatsuna by use of a rotary spraying tower. The leaf of Komatsuna was put back in the beaker. Then, the beaker was placed in a thermostatic chamber of 25° C. for 16 hours in the light and for 8 hours in the dark. 5 Days after the spraying, the number of dead insects was counted to calculate the mortality (%).

SMILES	mortality at 100 ppm [%]
O=C(Nc1cc(C=NO)no1)c1cnccc1C(F)(F)F [Example 8, N-(3-Hydroxyiminomethyl-5-isoxazolyl)-4-(trifluoromethyl)nicotinamide]	≥ 95

same assay, conditions: 120 h, 100 ppm spray on Komatsuna leaf, larvae, counted 5 days after spraying, 25° C., read-out: mortality (%)

SMILES	mortality at 100 ppm [%]
CCOCN(C(=O)c1cnccc1C(F)(F)F)c1cc(C)no1 [Example 2, N-Ethoxymethyl-N-(3-methyl-5-isoxazolyl)-4-(trifluoromethyl)nicotinamide]	≥ 95
Cc1noc(NC(=O)c2cnccc2C(F)(F)F)c1Cl [Example 3, N-(4-Chloro-3-methyl-5-isoxazolyl)-4-(trifluoromethyl)nicotinamide]	≥ 95
CCc1cc(NC(=O)c2cnccc2C(F)(F)F)on1 [Example 5, N-(3-Ethyl-5-isoxazolyl)-4-(trifluoromethyl)nicotinamide]	≥ 95
CC(C)c1cc(NC(=O)c2cnccc2C(F)(F)F)on1 [Example 6, N-(3-Isopropyl-5-isoxazolyl)-4-(trifluoromethyl)nicotinamide]	≥ 95
O=Cc1cc(NC(=O)c2cnccc2C(F)(F)F)on1 [Example 7, N-(3-Formyl-5-isoxazolyl)-4-(trifluoromethyl)nicotinamide]	≥ 95
N#Cc1cc(NC(=O)c2cnccc2C(F)(F)F)on1 [Example 9, N-(3-Cyano-5-isoxazolyl)-4-(trifluoromethyl)nicotinamide]	≥ 95
COCc1cc(NC(=O)c2cnccc2C(F)(F)F)on1 [Example 10, N-(3-Methoxymethyl-5-isoxazolyl)-4-(trifluoromethyl)nicotinamide]	≥ 95
O=C(Nc1oncc1Cl)c1cnccc1C(F)(F)F [Example 11, N-(4-Chloro-5-isoxazolyl)-4-(trifluoromethyl)nicotinamide]	≥ 95
O=C(Nc1onc(C2CC2)c1Cl)c1cnccc1C(F)(F)F [Example 12, N-(4-Chloro-3-cyclopropyl-5-isoxazolyl)-4-(trifluoromethyl)nicotinamide]	≥ 95
COCc1noc(NC(=O)c2cnccc2C(F)(F)F)c1Cl [Example 13, N-(4-Chloro-3-methoxymethyl-5-isoxazolyl)-4-(trifluoromethyl)nicotinamide]	≥ 95
Cc1noc(NC(=O)c2cnccc2C(F)(F)F)c1Br [Example 14, N-(4-Bromo-3-methyl-5-isoxazolyl)-4-(trifluoromethyl)nicotinamide]	≥ 95
Cc1cc(N(C)C(=O)c2cnccc2C(F)(F)F)on1 [Example 16, N-Methyl-N-(3-methyl-5-isoxazolyl)-4-(trifluoromethyl)nicotinamide]	≥ 95
Cc1cc(N(CC#N)C(=O)c2cnccc2C(F)(F)F)on1 [Example 19, N-Cyanomethyl-N-(3-methyl-5-isoxazolyl)-4-(trifluoromethyl)nicotinamide]	≥ 95
CSCN(C(=O)c1cnccc1C(F)(F)F)c1cc(C)no1 [Example 20, N-(3-Methyl-5-isoxazolyl)-N-methylthiomethyl-4-(trifluoromethyl)nicotinamide]	≥ 95
Cc1noc(NC(=O)c2cnccc2C(F)(F)F)n1 [Example 21, N-(3-Methyl-[1,2,4]oxadiazol-5-yl)-4-(trifluoromethyl)nicotinamide]	≥ 95
N#Cc1noc(NC(=O)c2cnccc2C(F)(F)F)c1Cl [Example 22, N-(4-Chloro-3-cyano-5-isoxazolyl)-4-(trifluoromethyl)nicotinamide]	≥ 95
N#Cc1noc(NC(=O)c2cnccc2C(F)(F)F)c1F [Example 23, N-(4-Fluoro-3-cyano-5-isoxazolyl)-4-(trifluoromethyl)nicotinamide]	≥ 95
O=C(Nc1oncc1Br)c1cnccc1C(F)(F)F [Example 24, N-(4-Bromo-5-isoxazolyl)-4-(trifluoromethyl)nicotinamide]	≥ 95
CCOC(OCC)c1cc(NC(=O)c2cnccc2C(F)(F)F)on1 [Example 26, N-(3-Diethoxymethyl-5-isoxazolyl)-4-(trifluoromethyl)nicotinamide]	≥ 95
CC(=O)N(C(=O)c1cnccc1C(F)(F)F)c1cc(C)no1 [Example 27, N-Acetyl-N-(3-methyl-5-isoxazolyl)-4-(trifluoromethyl)nicotinamide]	≥ 95
CON=Cc1cc(NC(=O)c2cnccc2C(F)(F)F)on1 [Example 28, N-(3-Methoxyiminomethyl-5-isoxazolyl)-4-(trifluoromethyl)nicotinamide]	≥ 95
CCOC(=O)c1cc(NC(=O)c2cnccc2C(F)(F)F)on1 [Example 29, N-(3-Ethoxycarbonyl-5-isoxazolyl)-4-(trifluoromethyl)nicotinamide]	≥ 95

SMILES	mortality at 100 ppm [%]
O=C(c1cnccc1C(F)(F)F)N(C(=O)c1cnccc1C(F)(F)F)c1ccno1 [Example 30, 5-[N,N-Bis(4-trifluoromethylnicotinoyl)]aminoisoxazole]	≥ 95
Cc1noc(NC(=O)c2cnccc2C(F)(F)F)c1C [Example 33, N-(3,4-Dimethyl-5-isoxazolyl)-4-(trifluoromethyl)nicotinamide]	≥ 95
CCc1cnoc1NC(=O)c1cnccc1C(F)(F)F [Example 34, N-(4-Ethyl-5-isoxazolyl)-4-(trifluoromethyl)nicotinamide]	≥ 95
CCCc1cnoc1NC(=O)c1cnccc1C(F)(F)F [Example 35, N-(4-Propyl-5-isoxazolyl)-4-(trifluoromethyl)nicotinamide]	≥ 95
CC(C)c1cnoc1NC(=O)c1cnccc1C(F)(F)F [Example 36, N-(4-Isopropyl-5-isoxazolyl)-4-(trifluoromethyl)nicotinamide]	≥ 95
O=C(Nc1oncc1C1CC1)c1cnccc1C(F)(F)F [Example 37, N-(4-Cyclopropyl-5-isoxazolyl)-4-(trifluoromethyl)nicotinamide]	≥ 95
C=CCc1cnoc1NC(=O)c1cnccc1C(F)(F)F [Example 38, N-(4-Allyl-5-isoxazolyl)-4-(trifluoromethyl)nicotinamide]	≥ 95
CCCCc1cnoc1NC(=O)c1cnccc1C(F)(F)F [Example 39, N-(4-Butyl-5-isoxazolyl)-4-(trifluoromethyl)nicotinamide]	≥ 95
CC(C)Cc1cnoc1NC(=O)c1cnccc1C(F)(F)F [Example 40, N-(4-Isobutyl-5-isoxazolyl)-4-(trifluoromethyl)nicotinamide]	≥ 95
O=C(Nc1oncc1C1CCC1)c1cnccc1C(F)(F)F [Example 41, N-(4-Cyclobutyl-5-isoxazolyl)-4-(trifluoromethyl)nicotinamide]	≥ 95
O=C(Nc1oncc1C1CCCC1)c1cnccc1C(F)(F)F [Example 42, N-(4-Cyclopentyl-5-isoxazolyl)-4-(trifluoromethyl)nicotinamide]	≥ 95
CCCCCCc1cnoc1NC(=O)c1cnccc1C(F)(F)F [Example 43, N-(4-Hexyl-5-isoxazolyl)-4-(trifluoromethyl)nicotinamide]	≥ 95
CCCCCCc1cnoc1N(C(=O)c1cnccc1C(F)(F)F)C(=O)c1cnccc1C(F)(F)F [Example 44, 5-[N,N-Bis(4-trifluoromethylnicotinoyl)]amino-4-hexylisoxazole]	≥ 95
O=C(Nc1oncc1Cc1ccccc1)c1cnccc1C(F)(F)F [Example 45, N-(4-Benzyl-5-isoxazolyl)-4-(trifluoromethyl)nicotinamide]	≥ 95
O=C(Nc1oncc1CCc1ccccc1)c1cnccc1C(F)(F)F [Example 46, N-(4-Phenylethyl-5-isoxazolyl)-4-(trifluoromethyl)nicotinamide]	≥ 95
COc1cnoc1NC(=O)c1cnccc1C(F)(F)F [Example 47, N-(4-Methoxy-5-isoxazolyl)-4-(trifluoromethyl)nicotinamide]	≥ 95
COCc1noc(NC(=O)c2cnccc2C(F)(F)F)c1OC [Example 48, N-(4-Methoxy-3-methoxymethyl-5-isoxazolyl)-4-(trifluoromethyl)nicotinamide]	≥ 95
CSc1cnoc1NC(=O)c1cnccc1C(F)(F)F [Example 49, N-(4-Methylthio-5-isoxazolyl)-4-(trifluoromethyl)nicotinamide]	≥ 95
Cc1cnsc1N(C(=O)c1cnccc1C(F)(F)F)C(=O)c1cnccc1C(F)(F)F [Example 50, 5-[N,N-Bis(4-trifluoromethylnicotinoyl)]amino-4-methylthioisoxazole]	≥ 95
O=C(Nc1oncc1Oc1ccccc1)c1cnccc1C(F)(F)F [Example 51, N-(4-Phenoxy-5-isoxazolyl)-4-(trifluoromethyl)nicotinamide]	≥ 95
O=C(c1cnccc1C(F)(F)F)N(C(=O)c1cnccc1C(F)(F)F)c1oncc1Oc1ccccc1 [Example 52, 5-[N,N-Bis(4-trifluoromethylnicotinoyl)]amino-4-phenoxyisoxazole]	≥ 95
O=C(Nc1oncc1-c1ccccc1)c1cnccc1C(F)(F)F [Example 53, N-(4-Phenyl-5-isoxazolyl)-4-(trifluoromethyl)nicotinamide]	≥ 95

— patent US7015236B2, “N-heteroarylnicotinamide derivatives” (Sankyo Agro Company, Limited, priority 2001, dated 2006)
